In US6436448B1, “Method for the treatment of lymphedema using guaifenesin” (Sky BioHealth Solutions, Inc., priority 2001, dated 2002):

Legend:
[1] = herbal medicines, background statement; cited from earlier work
[2] = Inventor's clinical observation of patients with lymphedema / fluid accumulation treated orally; format: in vivo
Description: The inventor disagrees with the basic assumption and hypothesis on the inner working of guaifenesin. The inventor believes that guaifenesin's activity is its ability to break down undigested protein, and antigen-antibody complexed protein within the tissues and lymphatic nodes and vessels to reduce fluid accumulation and therefore reduce lymphedema. Guaifenesin is an expectorate and it thins out proteinaceous secretions from our lungs by directly and/or indirectly through stimulating macrophages to breaking the proteins into its amino acids components. The inventor believes that guaifenesin break down the proteins within the blood stream, tissues, and the lymphatic system. By maintaining a high level of guaifenesin within the blood stream, the “foreign” proteins within the tissue, antigen-antibody protein complexes within the lymph nodes will be broken down allowing the broken down amino acid particles to diffuse across the tissue into the lymphatic drainage. With this fluid switch from the lymphatic to the systemic circulation diuresis ensues without affecting the potassium metabolism within the kidney. The inventor has also observed lymphedema that occurs in non-fibromyalgia patients that responds well to guaifenesin therapy resulting in reduction of the swelling. […] These observations confirm the hypothesis that guaifenesin works on the “foreign” protein or antigen-antibodies protein complexes within the tissues and lymphatic system. With different size “foreign” protein and antigen-antibody protein complexes, guaifenesin's action on these proteins in various part of the body will proceed with different rate resulting in different rate of swelling reduction in different part of the bodies. Many of these patients, however, are diagnosed by a physician to have a cardiogenic etiology of edema and are typically treated with diuretics of various types. Cardiogenic edema should respond to a diuretic within […]. The inventor has observed patients being on diuretics for as long as a year with no results on the lymphedema. In testing this hypothesis, the inventor has used guaifenesin on over several hundred patients in varying dosages. […] Guaifenesin is also available in sustained-release version. The long-acting version is typically available at 600 mg and is designed to be taken two or three times a day. […] Other combinations of various dosage for ms may be used with various patients to improve results. […] While the inventor has only administered guaifenesin to patients orally, guaifenesin and its analogs can be formulated using known methods to prepare pharmaceutically useful compositions by combining guaifenesin with a pharmaceutically acceptable carriers and adapted to be administered by injection, transdermally, transmucosally or by any other means of drug delivery vehicle. Guafenesin may also be administered to a patient in a patch form or in a cream, ointment, or in a nasal or lung spray, or in a suppository.

| SMILES | swelling of lymphedema [1] | results with combination of short acting and long acting versions ([2]; combination of short acting and long acting versions) | painful and swollen lymph nodes ([2]; fibromyalgia patients on guaifenesin) | results with long-acting (sustained-release) version alone ([2]; long-acting version, typically 600 mg two or three times a day) | response of lymphedema (reduction of the swelling) ([2]; non-fibromyalgia patients, guaifenesin therapy) | accumulated fluid ([2]; over several hundred patients, oral, about 600 mg to about 4000 mg per day) |
| --- | --- | --- | --- | --- | --- | --- |
| O=c1ccc2ccccc2o1 [coumarin] | decrease some of the swelling associated with lymphedema |  |  |  |  |  |
| COc1ccccc1OCC(O)CO (stereo not drawn) [guaifenesin] |  | improves the results | reduction of the painful and swollen lymph nodes | may not work well in some patients | responds well | reduction of accumulated fluid |
